Experimental data taken from paper PMC4032265 (PLoS ONE, 2014).

Legend:
[1] = target: T1, 5HT1A serotonergic receptor (Homo sapiens, UniProt P08908); assay: PDSP radioligand binding, 5HT1A; details: read-out: % inhibition at 10 µM; single concentration 10 µM
T1 sequence (P08908 1-422): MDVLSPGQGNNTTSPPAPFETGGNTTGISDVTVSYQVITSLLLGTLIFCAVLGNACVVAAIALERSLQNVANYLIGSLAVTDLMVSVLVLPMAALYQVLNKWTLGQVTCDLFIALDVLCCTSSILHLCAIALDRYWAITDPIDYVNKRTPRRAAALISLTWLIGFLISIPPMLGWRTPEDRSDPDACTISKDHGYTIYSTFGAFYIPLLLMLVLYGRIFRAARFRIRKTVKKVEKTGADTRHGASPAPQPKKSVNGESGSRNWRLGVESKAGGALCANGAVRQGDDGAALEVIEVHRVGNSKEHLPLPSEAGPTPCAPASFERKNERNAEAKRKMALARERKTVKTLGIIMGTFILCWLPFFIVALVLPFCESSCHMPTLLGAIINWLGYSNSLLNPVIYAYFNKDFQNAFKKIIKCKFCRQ

[2] = target: hERG potassium channel (Homo sapiens, UniProt Q12809); assay: PDSP hERG functional assay; assay type: cell-based; details: single point 10 µM
Chain of hERG potassium channel (Q12809 whole entry): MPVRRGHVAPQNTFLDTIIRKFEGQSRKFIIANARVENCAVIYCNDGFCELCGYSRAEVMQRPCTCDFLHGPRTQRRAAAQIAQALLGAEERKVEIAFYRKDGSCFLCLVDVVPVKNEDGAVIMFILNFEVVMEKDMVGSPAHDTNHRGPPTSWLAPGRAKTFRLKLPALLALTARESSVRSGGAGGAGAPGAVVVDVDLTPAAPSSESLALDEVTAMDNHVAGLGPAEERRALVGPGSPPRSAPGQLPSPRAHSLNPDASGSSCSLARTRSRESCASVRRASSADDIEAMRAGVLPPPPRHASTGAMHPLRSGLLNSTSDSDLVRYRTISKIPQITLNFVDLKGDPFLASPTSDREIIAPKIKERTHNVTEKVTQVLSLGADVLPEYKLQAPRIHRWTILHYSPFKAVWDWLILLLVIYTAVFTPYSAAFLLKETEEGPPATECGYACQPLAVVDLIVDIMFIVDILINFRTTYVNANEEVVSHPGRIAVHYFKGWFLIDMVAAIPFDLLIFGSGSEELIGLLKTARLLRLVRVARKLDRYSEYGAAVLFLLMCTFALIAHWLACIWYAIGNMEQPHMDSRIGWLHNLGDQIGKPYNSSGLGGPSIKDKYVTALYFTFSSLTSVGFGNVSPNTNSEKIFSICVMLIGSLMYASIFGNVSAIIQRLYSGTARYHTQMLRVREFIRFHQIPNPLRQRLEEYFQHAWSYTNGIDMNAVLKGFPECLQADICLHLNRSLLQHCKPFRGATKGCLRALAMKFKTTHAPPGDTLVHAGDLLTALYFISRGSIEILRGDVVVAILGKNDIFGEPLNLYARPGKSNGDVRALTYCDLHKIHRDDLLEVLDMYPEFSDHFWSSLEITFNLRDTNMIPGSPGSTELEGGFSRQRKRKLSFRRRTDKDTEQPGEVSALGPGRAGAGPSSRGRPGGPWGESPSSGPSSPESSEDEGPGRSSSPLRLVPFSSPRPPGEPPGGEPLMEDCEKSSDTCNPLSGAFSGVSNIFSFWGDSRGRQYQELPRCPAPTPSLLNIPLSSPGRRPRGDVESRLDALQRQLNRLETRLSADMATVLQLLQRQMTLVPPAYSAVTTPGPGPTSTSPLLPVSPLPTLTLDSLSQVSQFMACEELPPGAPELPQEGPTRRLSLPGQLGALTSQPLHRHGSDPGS

[3] = target: T2, M2 muscarinic acetylcholine receptor (Homo sapiens, UniProt P08172); assay: PDSP radioligand binding, M2; details: read-out: % inhibition at 10 µM; single concentration 10 µM
T2 sequence (P08172 1-466): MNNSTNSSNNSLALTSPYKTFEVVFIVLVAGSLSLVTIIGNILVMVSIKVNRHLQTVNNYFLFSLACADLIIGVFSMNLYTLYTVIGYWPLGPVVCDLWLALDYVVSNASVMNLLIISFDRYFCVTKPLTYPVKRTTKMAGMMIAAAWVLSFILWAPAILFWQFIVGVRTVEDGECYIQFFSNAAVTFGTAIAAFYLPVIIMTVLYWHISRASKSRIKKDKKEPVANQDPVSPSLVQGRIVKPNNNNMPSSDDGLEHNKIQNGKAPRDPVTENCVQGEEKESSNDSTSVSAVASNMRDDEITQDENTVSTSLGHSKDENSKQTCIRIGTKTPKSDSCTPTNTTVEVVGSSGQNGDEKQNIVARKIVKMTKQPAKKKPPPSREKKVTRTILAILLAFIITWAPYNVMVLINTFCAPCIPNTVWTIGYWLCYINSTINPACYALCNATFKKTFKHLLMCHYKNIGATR

[4] = target: T3, σ2 receptor (Rattus norvegicus, UniProt Q5U3Y7); assay: PDSP radioligand binding, σ2; details: read-out: % inhibition at 10 µM; single concentration 10 µM
T3 sequence (Q5U3Y7 1-176): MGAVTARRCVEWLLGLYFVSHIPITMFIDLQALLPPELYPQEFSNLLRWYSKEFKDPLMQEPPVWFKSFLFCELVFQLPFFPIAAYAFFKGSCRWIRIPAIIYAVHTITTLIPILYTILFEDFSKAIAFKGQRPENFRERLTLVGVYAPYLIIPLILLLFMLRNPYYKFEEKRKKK

[5] = target: σ1 receptor (Cavia porcellus, UniProt Q60492); assay: PDSP radioligand binding, σ1; details: read-out: % inhibition at 10 µM; single concentration 10 µM
Chain of σ1 receptor (Q60492 whole entry): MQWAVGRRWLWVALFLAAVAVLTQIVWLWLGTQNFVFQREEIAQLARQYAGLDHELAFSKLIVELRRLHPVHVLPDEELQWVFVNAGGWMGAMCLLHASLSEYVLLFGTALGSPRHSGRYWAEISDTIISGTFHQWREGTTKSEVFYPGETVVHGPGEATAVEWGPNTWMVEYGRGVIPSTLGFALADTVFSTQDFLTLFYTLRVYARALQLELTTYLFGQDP

[6] = target: D3 dopaminergic receptor (Homo sapiens, UniProt P35462); assay: PDSP radioligand binding, D3; details: read-out: % inhibition at 10 µM; single concentration 10 µM
Chain of D3 dopaminergic receptor (P35462 whole entry): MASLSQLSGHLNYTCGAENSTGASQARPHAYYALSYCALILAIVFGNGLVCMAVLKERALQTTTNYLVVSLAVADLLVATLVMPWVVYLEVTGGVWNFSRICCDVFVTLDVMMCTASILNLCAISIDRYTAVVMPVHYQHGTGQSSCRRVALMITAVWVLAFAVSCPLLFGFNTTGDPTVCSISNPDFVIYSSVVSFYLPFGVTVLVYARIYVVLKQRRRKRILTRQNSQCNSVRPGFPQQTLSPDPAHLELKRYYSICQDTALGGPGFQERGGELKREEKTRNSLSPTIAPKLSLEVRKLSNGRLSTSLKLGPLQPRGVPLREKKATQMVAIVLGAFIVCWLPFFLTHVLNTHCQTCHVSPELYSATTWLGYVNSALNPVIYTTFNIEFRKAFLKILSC

[7] = target: κ opioid receptor (Homo sapiens, UniProt P41145); assay: PDSP radioligand binding, κ opioid; details: read-out: % inhibition at 10 µM
Chain of κ opioid receptor (P41145 whole entry): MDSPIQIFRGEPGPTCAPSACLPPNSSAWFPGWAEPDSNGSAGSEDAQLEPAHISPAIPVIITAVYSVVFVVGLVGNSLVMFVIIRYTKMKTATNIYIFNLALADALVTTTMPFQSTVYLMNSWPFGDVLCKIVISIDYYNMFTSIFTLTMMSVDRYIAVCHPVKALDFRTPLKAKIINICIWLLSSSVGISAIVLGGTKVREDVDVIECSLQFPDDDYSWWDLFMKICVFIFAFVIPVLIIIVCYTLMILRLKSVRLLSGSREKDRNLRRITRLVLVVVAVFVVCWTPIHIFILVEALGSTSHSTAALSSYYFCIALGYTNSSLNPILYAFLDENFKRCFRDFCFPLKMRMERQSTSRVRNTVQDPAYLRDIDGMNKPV

[8] = target: β2 adrenergic receptor (Homo sapiens, UniProt P07550); assay: PDSP radioligand binding, β2; details: read-out: % inhibition at 10 µM; single concentration 10 µM
Chain of β2 adrenergic receptor (P07550 whole entry): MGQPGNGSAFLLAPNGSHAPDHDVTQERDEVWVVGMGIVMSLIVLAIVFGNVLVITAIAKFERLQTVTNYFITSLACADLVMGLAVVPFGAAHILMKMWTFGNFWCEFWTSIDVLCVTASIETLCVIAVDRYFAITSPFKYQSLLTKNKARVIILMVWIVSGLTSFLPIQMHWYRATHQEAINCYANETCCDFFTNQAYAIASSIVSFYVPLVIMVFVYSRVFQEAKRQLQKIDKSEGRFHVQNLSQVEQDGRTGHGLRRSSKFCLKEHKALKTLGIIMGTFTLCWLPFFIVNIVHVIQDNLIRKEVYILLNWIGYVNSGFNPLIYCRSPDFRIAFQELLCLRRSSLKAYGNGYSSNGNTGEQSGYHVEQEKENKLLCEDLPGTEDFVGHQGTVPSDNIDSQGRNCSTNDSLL

[9] = target: H1 histaminergic receptor (Homo sapiens, UniProt P35367); assay: PDSP radioligand binding, H1; details: read-out: % inhibition at 10 µM; single concentration 10 µM
Chain of H1 histaminergic receptor (P35367 whole entry): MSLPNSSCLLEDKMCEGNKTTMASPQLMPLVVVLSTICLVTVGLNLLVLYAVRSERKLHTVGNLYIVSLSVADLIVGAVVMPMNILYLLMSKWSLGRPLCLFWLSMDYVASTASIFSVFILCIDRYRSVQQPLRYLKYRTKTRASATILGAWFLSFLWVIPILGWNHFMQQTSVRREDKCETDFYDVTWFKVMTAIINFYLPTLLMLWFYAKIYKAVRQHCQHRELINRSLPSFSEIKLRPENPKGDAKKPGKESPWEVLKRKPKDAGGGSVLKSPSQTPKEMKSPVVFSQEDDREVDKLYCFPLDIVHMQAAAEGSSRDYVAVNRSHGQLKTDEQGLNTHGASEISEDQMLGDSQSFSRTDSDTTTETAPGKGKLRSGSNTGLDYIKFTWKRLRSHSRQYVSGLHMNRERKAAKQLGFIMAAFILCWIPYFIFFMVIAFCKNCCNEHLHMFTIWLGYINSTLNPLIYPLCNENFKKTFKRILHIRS

[10] = target: D5 dopaminergic receptor (Homo sapiens, UniProt P21918); assay: PDSP radioligand binding, D5; details: read-out: % inhibition at 10 µM; single concentration 10 µM
Chain of D5 dopaminergic receptor (P21918 whole entry): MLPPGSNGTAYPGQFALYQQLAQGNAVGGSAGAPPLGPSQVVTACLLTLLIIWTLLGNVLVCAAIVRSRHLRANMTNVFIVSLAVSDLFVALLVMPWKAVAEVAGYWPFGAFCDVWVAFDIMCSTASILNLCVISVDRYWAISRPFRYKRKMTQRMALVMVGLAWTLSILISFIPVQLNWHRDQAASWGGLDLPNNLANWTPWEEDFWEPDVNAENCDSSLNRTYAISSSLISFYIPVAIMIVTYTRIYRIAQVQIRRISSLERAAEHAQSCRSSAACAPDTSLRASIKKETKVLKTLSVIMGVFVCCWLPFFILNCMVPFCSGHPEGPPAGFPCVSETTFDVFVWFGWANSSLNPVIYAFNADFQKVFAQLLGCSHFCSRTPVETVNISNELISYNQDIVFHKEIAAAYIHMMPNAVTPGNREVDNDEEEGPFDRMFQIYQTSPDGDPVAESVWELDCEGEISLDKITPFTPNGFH

[11] = target: T4, α1D adrenergic receptor (Homo sapiens, UniProt P25100); assay: PDSP radioligand binding, α1D; details: read-out: % inhibition at 10 µM; single concentration 10 µM
T4 sequence (P25100 1-572): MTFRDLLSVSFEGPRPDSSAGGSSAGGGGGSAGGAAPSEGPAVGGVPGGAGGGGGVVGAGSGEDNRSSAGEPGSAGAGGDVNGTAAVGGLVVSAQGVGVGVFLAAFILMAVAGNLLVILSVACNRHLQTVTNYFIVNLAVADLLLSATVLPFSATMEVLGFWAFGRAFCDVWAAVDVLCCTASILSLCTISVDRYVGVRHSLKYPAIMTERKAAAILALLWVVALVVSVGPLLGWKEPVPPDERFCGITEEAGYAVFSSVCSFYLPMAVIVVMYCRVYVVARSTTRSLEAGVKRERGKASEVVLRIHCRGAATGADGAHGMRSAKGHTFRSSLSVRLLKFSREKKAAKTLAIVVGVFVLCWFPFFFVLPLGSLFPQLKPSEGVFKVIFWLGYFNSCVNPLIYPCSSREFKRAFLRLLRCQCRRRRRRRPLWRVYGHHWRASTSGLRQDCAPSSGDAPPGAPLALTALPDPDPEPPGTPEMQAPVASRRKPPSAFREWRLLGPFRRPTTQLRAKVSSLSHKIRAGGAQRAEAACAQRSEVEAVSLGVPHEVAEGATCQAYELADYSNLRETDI

[12] = target: 5HT6 serotonergic receptor (Homo sapiens, UniProt P50406); assay: PDSP radioligand binding, 5HT6; details: read-out: % inhibition at 10 µM; single concentration 10 µM
Chain of 5HT6 serotonergic receptor (P50406 whole entry): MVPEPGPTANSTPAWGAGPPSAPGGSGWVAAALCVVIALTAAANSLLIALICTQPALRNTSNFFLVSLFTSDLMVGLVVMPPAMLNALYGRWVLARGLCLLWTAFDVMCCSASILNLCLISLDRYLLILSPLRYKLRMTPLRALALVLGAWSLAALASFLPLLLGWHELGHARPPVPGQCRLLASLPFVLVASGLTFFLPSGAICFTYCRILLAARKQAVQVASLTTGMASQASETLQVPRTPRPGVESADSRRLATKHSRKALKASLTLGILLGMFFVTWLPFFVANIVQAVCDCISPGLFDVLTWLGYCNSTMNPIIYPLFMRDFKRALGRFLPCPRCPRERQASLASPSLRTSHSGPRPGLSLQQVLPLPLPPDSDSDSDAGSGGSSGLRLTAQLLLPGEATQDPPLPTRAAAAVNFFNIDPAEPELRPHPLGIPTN

[13] = target: 5HT2A serotonergic receptor (Homo sapiens, UniProt P28223); assay: PDSP radioligand binding, 5HT2A; details: read-out: % inhibition at 10 µM
Chain of 5HT2A serotonergic receptor (P28223 whole entry): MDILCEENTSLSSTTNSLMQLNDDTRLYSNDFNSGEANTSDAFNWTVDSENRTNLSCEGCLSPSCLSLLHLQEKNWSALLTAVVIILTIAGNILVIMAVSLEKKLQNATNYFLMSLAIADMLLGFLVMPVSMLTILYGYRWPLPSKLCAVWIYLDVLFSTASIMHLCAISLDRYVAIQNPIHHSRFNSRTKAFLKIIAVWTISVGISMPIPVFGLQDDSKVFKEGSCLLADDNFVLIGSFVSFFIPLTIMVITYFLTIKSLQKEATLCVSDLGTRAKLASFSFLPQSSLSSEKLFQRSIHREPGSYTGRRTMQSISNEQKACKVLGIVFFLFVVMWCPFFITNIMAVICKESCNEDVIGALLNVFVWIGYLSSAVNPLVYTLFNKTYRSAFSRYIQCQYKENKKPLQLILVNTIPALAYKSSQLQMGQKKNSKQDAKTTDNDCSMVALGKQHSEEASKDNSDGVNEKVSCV

[14] = target: µ opioid receptor (Homo sapiens, UniProt P35372); assay: PDSP radioligand binding, µ opioid; details: read-out: % inhibition at 10 µM; single concentration 10 µM
Chain of µ opioid receptor (P35372 whole entry): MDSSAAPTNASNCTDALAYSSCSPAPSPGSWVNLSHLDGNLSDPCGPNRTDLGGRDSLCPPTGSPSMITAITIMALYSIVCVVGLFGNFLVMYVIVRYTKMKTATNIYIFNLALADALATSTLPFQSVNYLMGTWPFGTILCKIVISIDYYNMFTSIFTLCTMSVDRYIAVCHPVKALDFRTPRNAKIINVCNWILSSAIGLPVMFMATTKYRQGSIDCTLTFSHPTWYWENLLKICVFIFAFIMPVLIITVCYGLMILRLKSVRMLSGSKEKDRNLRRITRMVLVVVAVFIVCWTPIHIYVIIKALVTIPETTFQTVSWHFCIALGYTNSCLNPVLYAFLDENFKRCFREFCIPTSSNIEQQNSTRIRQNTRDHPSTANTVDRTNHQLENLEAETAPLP

[15] = target: T5, α2B adrenergic receptor (Homo sapiens, UniProt P18089); assay: PDSP radioligand binding, α2B; details: read-out: % inhibition at 10 µM; single concentration 10 µM
T5 sequence (P18089 1-450): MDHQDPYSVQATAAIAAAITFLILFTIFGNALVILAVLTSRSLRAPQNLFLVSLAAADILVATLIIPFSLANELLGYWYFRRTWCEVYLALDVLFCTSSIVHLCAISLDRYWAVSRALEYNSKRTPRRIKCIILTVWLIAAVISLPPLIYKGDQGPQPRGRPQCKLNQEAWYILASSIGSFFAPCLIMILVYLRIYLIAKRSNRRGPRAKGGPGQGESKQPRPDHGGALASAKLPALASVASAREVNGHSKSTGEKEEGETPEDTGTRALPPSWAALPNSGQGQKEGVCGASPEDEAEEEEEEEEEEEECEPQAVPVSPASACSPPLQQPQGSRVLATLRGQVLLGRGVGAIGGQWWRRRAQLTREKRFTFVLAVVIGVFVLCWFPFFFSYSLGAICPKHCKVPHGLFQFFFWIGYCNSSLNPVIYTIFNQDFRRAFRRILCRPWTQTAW

O[C@@H]1[C@H](O)[C@@H]2C[C@@H]2[C@H]1n1cnc2c(NC(C3CC3)C3CC3)nc(Cl)nc21 [Compound 10]
inhibition at 10 µM [1]: 4%
% inhibition at 10 µM (hERG functional assay) [2]: 4.5 ± 2.4%
inhibition at 10 µM [3]: 15%
inhibition at 10 µM [4]: 0%
inhibition at 10 µM [5]: 9%
inhibition at 10 µM [6]: 8%
inhibition at 10 µM [7]: 0%
inhibition at 10 µM [8]: 2%
inhibition at 10 µM [9]: 0%
inhibition at 10 µM [10]: 0%
inhibition at 10 µM [11]: 13%
inhibition at 10 µM [12]: 0%
inhibition at 10 µM [13]: 0%
inhibition at 10 µM [14]: 0%
inhibition at 10 µM [15]: 15%
